US6333348A, “Use of docetaxel for treating cancers” (Aventis Pharma S.A., priority 2000, dated 2001)

Columns and labels:
breast cancer = experiment: Docetaxel alone, several in-house proprietary studies; format: in vivo, human
Description: Docetaxel alone, in several in-house proprietary studies, gave overall response rates of 40 to 43% (in second line therapy at a dose of 100 mg/m^2), 48% (in first line therapy at a dose of 75 mg/m^2) and 61% (in first line therapy at a dose of 100 mg/m^2).

[1] = treatments based on taxoid derivatives, including docetaxel; cited from earlier work

Which results are given for `CC(=O)O[C@@]12CO[C@@H]1C[C@H](O)[C@@]1(C)C(=O)[C@H](O)C3=C(C)[C@@H](OC(=O)[C@H](O)[C@@H](NC(=O)OC(C)(C)C)c4ccccc4)C[C@@](O)([C@@H](OC(=O)c4ccccc4)[C@H]21)C3(C)C` [docetaxel]?
overall response rate (breast cancer; first line therapy, 75 mg/m^2): 48%; overall response rate (breast cancer; first line therapy, 100 mg/m^2): 61%; overall response rate (breast cancer; second line therapy, 100 mg/m^2): 40 to 43%; toxicities [1]: myelosuppression, neutropenia, hypersensitivity, peripheral neuropathy, and fluid retention
